Experimental data taken from article PMC9925730, “Controlled sequential in situ self-assembly and disassembly of a fluorogenic cisplatin prodrug for cancer theranostics” (Nature Communications, 2023).
Several values for one entry are separate records, joined by “and”; a condition that tells them apart may be missing. Identical values can stand only once.

Assays:
ALP [1] = assay: Enzyme kinetics of P-CyPt towards ALP (Lineweaver-Burk); type: biochemical; settings: Supplementary Fig. 5b; for 1/v, mean: mean of 3 samples
ALP [2] = biological target: T1, ALP (Bos taurus, UniProt P19111); assay: as above; type: biochemical; settings: ALP (20 U/L)
T1 construct: Alkaline phosphatase from bovine; purchased Sigma-Aldrich; host or cells: bovine intestinal mucosa (tissue-derived)
T1 sequence (P19111 20-533): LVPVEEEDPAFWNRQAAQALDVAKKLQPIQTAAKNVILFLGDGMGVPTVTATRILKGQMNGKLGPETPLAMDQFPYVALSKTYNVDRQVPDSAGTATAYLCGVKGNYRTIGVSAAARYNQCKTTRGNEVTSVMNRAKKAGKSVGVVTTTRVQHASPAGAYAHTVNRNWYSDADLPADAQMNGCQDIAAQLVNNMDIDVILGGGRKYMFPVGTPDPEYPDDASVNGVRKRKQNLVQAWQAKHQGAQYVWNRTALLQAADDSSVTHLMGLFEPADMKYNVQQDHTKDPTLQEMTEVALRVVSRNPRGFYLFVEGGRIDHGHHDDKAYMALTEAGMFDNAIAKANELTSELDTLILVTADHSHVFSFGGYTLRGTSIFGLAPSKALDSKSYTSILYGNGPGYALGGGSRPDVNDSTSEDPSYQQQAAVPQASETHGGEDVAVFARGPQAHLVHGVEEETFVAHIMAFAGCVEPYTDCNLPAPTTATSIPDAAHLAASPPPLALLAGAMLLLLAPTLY

s.c. HeLa tumors = assay: Ex vivo FL imaging of resected tumors and organs; type: in vivo, mice; settings: 4 h post i.v. injection
Protocol: Supplementary Figure 27. Ex vivo FL imaging of tumors and main organs. (a) Representative ex vivo FL images (λex/em = 660/750 ± 50 nm) and (b) average FL intensities of tumors and main organs resected from P-CyPt- or PtIVNPs-treated HeLa […]
200 μL). After 4 h, the mice were sacrificed. Tumors (T) and main organs, including liver (L), heart (H), spleen (Sp), lung (Lu), kidney (K), stomach (St), and intestine (In) were resected, and the FL images were acquired on the IVIS spectrum imager. Values denote mean ± s.d. (n = 3 independent animals). Statistical difference was analyzed by Student’s two-sided t-test. Source data are provided as a Source Data file.
Supplementary Figure 28. FL imaging of resected tumor tissue slices. FL images of tumor tissue slices (10 μm thickness) resected from s.c. HeLa tumor-bearing mice at 4 h after i.v. injection of PBS (200 μL), PtIVNPs or P-CyPt (100 μM, 200 μL). Cell nuclei were co-stained with DAPI (blue). […]
(§1) μm. […] The fluorescence images of the MCTS were captured on a Leica TCS SP8 confocal laser scanning microscope, microscope (TCS SP8 STED 3X) with 10x/0.4 dry lens (Leica), and captured at RGB on a HyD detector (Leica Dmi8) under PI and Cy5.5 channels. […]
(§2) were sacrificed after 4 h. […] The fluorescence images of these organs and tumors were acquired with the IVIS Lumina XR III imaging system using a 660 nm excitation filter and a 750 ± 50 nm emission filter. […]

HeLa MCTS = assay: MCTS imaging and cytotoxicity (penetration, PI staining); type: cell-based, human; settings: 10 μM 1 h, then 24 h
Protocol: Supplementary Figure 25. Flow cytometric analysis of HeLa cell death. (a) Gating strategy applied for flow cytometric analysis. (b) Representative flow cytometric analysis of HeLa cells by Annexin V-FITC/PI staining. HeLa cells were treated with PBS, CDDP, PtIVNPs or P-CyPt (20 μM) for 2 h, washed with cold PBS for three times, and then continued incubation in refresh blank DMEM medium for another 48 h. The cells were then stained with the Annexin V-FITC/PI kit, and analyzed by flow cytometry. One representative experiment out of two is shown.
Supplementary Figure 26. Evaluation of the penetration and cytotoxicity of PtIVNPs toward HeLa MCTS. MCTS were incubated with PtIVNPs (10 μM) for 1 h, then washed with PBS buffer for three times, followed by incubation for another 24 h.
The MCTs were then co-stained with PI. […]
as §1, §2

ALP [3] = assay: Dephosphorylated efficacy of P-CyPt towards varying concentrations of ALP (NIR fluorescence); type: biochemical; settings: 250 μM
HeLa cells = assay: NIR FL and PA bimodality imaging of cell pellets; type: cell-based, human; settings: for normalized FL of cell pellets (Fig. 3c): 30 min
[4] = HeLa, P-CyPt 10 μM 30 min then blank medium 3 h (Group II vs I)

CC1(C)C(/C=C/C2=C3Oc4cc(OP(=O)(O)O)c(Cl)cc4C=C3CCC2)=[N+](CCCNC(=O)[C@@H](Cc2ccccc2)NC(=O)[C@@H](Cc2ccccc2)NC(=O)CCC(=O)[O][Pt]([NH2])([NH2])([OH])([Cl])[Cl])c2ccccc21 [P-CyPt]
1/v, single samples (sample-1 to sample-3) (ALP [1]; 1/S [μM] 0.2): 7.131 min/µM and 6.758 min/µM and 6.78 min/µM | 1/v, mean (ALP [1]; 1/S [μM] 0.2): 6.889 min/µM | 1/v, single samples (sample-1 to sample-3) (ALP [1]; 1/S [μM] 0.25): 8.023 min/µM and 8.58 min/µM and 6.977 min/µM | 1/v, mean (ALP [1]; 1/S [μM] 0.25): 7.860 min/µM | 1/v, single samples (sample-1 to sample-3) (ALP [1]; 1/S [μM] 0.333333): 10.0959 min/µM and 10.7285 min/µM and 10.3072 min/µM | 1/v, mean (ALP [1]; 1/S [μM] 0.333333): 10.377 min/µM | 1/v, single samples (sample-1 to sample-3) (ALP [1]; 1/S [μM] 0.5): 12.1342 min/µM and 13.921 min/µM and 15.7076 min/µM | 1/v, mean (ALP [1]; 1/S [μM] 0.5): 13.921 min/µM | 1/v, single samples (sample-1 to sample-3) (ALP [1]; 1/S [μM] 1): 22.8038 min/µM and 25.6597 min/µM and 28.5158 min/µM | 1/v, mean (ALP [1]; 1/S [μM] 1): 25.660 min/µM | 1/v, single samples (sample-1 to sample-3) (ALP [1]; 1/S [μM] 2): 49.1562 min/µM and 54.4739 min/µM and 57.4911 min/µM | 1/v, mean (ALP [1]; 1/S [μM] 2): 53.707 min/µM | Vmax (ALP [2]): 0.55 µM/min | Km (ALP [2]; P-CyPt 0.5-5.0 μM): 14 µM | ex vivo tumor FL intensity higher than Pt^IVNPs-treated tumors (s.c. HeLa tumors): ~ 3.2 fold | penetration / cell-kill depth in MCTS (HeLa MCTS): ~ 200 μm | normalized signal over time (section 'Supplementary Fig. 2c'), mean of 3 (ALP [3]; time 260 min): 0.996 | normalized signal over time (section 'Supplementary Fig. 2c'), mean of 3 (ALP [3]; time 280 min): 0.9965 | normalized signal over time (section 'Supplementary Fig. 2c'), mean of 3 (ALP [3]; time 320 min): 0.9972 | normalized signal over time (section 'Supplementary Fig. 2c'), mean of 3 (ALP [3]; time 440 min): 0.9986 | normalized FL of cell pellets (Fig. 3c) (HeLa cells; Group I: HeLa, P-CyPt 10 μM): 0.6736 | normalized FL of cell pellets (Fig. 3c) (HeLa cells; Group II: HeLa, P-CyPt 10 μM, then blank medium 3 h): 1 | normalized FL of cell pellets (Fig. 3c) (HeLa cells; Group III: HeLa preincubated with Na3VO4 (10 mM, 20 min), then P-CyPt 10 μM): 0.2415 | decrease of PA signal at 750 nm in cell pellets (HeLa cells; [4]): ~ 3.5 fold | increase of NIR FL in cell pellets (HeLa cells; [4]): ~ 1.5 fold
